One compound from patent US7615210B2, “Treatment of endometriosis” (Medical Research Council, priority 2003, dated 2009) can be followed below.

Where “and” joins values, the source holds several entries; their conditions need not be identical. Equal entries are not always repeated.

This assay has as its system PK1 expression in endometrial tissue. Kind of assay: PK1 expression in endometrial tissue incubated with progesterone, Taqman quantitative RT-PCR. Type of assay: cell-based, human. The conditions noted are these: endometrial tissue (n=5), 1 μM progesterone, 24 hours, control ethanol; mean ± SEM; p<0.05. Here is the method: RNA was extracted from endometrial biopsies obtained from across the menstrual cycle (n=35) using Tri Reagent (Sigma, Poole, UK) following the Manufacturer's instructions. RNA samples were quantified and were reverse transcribed using 5.5 mmol 1^−1 MgCl2, 0.5 mmol 1^−1 of each deoxynucleotide triphosphate (dNTP), 2.5 μmol 1^−1 random hexamers, ribonuclease inhibitor (0.4 U μl^−1) and 1.25 U μl^−1 Multiscribe reverse transcriptase (all from Applied Biosystems, Warrington, UK). RNA (400 ng) was added to each reverse transcription reaction and samples were incubated for 90 minutes at 25° C., 45 minutes at 48° C. and 5 minutes at 95° C. The reaction mix for the polymerase chain reaction (PCR) consisted of 1× mastermix, ribosomal 18S forward and reverse primers, Ribosomal 18S probe (50 nmol 1^−1; all from Applied Biosystems, Warrington, UK), forward and reverse primers for PK1, PK2, PKR1 and PKR2 (300 nmol 1^−1) and their probes (200 nmol 1^−1) (all from Biosource UK, Nivelles, Belgium). The reaction mix (48 μl) was aliquoted into tubes and 2 μl cDNA was added. Duplicate 24 μl samples plus positive and negative controls were placed in a PCR plate and wells were sealed with optical caps. […] Data were analysed and processed using Sequence Detector version 1.6.3 (Applied Biosystems, Warrington, UK) according to manufacturer's instructions. […]

For the compound `CC(=O)[C@H]1CC[C@H]2[C@@H]3CCC4=CC(=O)CC[C@]4(C)[C@H]3CC[C@]12C` [progesterone], the “fold increase in PK1 expression compared with controls” value is 2.91 fold and 2.91(±0.75) fold.
